# Data: ChEMBL document CHEMBL1681651, “A broad spectrum anticancer nucleoside with selective toxicity against human colon cells in vitro” (2011)
# How the values were obtained:
# Assay type in all cases: functional
# SK-OV-3 = experiment: Growth inhibition of human SKOV3 cells assessed as cell growth at 10 uM after 48 hrs by SRB assay; details: SK-OV-3, 48 h, read-out: Activity
# SF-295 [1] = experiment: Growth inhibition of human SF295 cells assessed as cell growth at 1 uM after 48 hrs by SRB assay; details: SF-295, 48 h, read-out: Activity
# 786-0 [2] = experiment: Growth inhibition of human 786-0 cells assessed as cell growth at 0.1 uM after 48 hrs by SRB assay; details: 786-0, 48 h, read-out: Activity
# NCI-H226 = experiment: Growth inhibition of human NCI-H226 cells after 48 hrs by […] growth inhibition assay; details: NCI-H226, 48 h
# M14 = experiment: Growth inhibition of human M14 cells assessed as cell growth at 10 uM after 48 hrs by SRB assay; details: M14, 48 h, read-out: Activity
# UO-31 = experiment: Growth inhibition of human UO31 cells assessed as cell growth at 1 uM after 48 hrs by SRB assay; details: UO-31, 48 h, read-out: Activity
# NCI-H460 = experiment: Growth inhibition of human NCI-H460 cells assessed as cell growth at 1 uM after 48 hrs by SRB assay; details: NCI-H460, 48 h, read-out: Activity
# NCI/ADR-RES = experiment: Growth inhibition of human NCI/ADR-RES cells assessed as cell growth at 100 uM after 48 hrs by SRB assay; details: read-out: Activity
# HOP-92 [3] = experiment: Growth inhibition of human HOP92 cells after 48 hrs by […] growth inhibition assay; details: HOP-92, 48 h
# HOP-62 = experiment: Growth inhibition of human HOP62 cells assessed as cell growth at 100 uM after 48 hrs by SRB assay; details: HOP-62, 48 h, read-out: Activity
# LOX IMVI = experiment: Growth inhibition of human LOXIMVI cells assessed as cell growth at 10 uM after 48 hrs by SRB assay; details: read-out: Activity
# RXF 393 = experiment: Growth inhibition of human RXF393 cells assessed as cell growth at 0.1 uM after 48 hrs by SRB assay; details: RXF 393, 48 h, read-out: Activity
# SK-MEL-5 [4] = experiment: Growth inhibition of human SK-MEL-5 cells assessed as cell growth at 100 uM after 48 hrs by SRB assay; details: SK-MEL-5, 48 h, read-out: Activity
# DU-145 = experiment: Growth inhibition of human DU145 cells assessed as cell growth at 1 uM after 48 hrs by SRB assay; details: DU-145, 48 h, read-out: Activity
# EKVX [5] = experiment: Growth inhibition of human EKVX cells assessed as cell growth at 1 mM after 48 hrs by SRB assay; details: read-out: Activity
# EKVX [6] = experiment: Growth inhibition of human EKVX cells assessed as cell growth at 100 uM after 48 hrs by SRB assay; details: read-out: Activity
# SNB-19 = experiment: Growth inhibition of human SNB19 cells assessed as cell growth at 0.1 uM after 48 hrs by SRB assay; details: SNB-19, 48 h, read-out: Activity
# NCI-H23 = experiment: Growth inhibition of human NCI-H23 cells assessed as cell growth at 1 mM after 48 hrs by SRB assay; details: NCI-H23, 48 h, read-out: Activity
# HOP-92 [7] = experiment: Growth inhibition of human HOP92 cells assessed as cell growth at 1 uM after 48 hrs by SRB assay; details: HOP-92, 48 h, read-out: Activity
# TK-10 = experiment: Growth inhibition of human TK10 cells assessed as cell growth at 1 mM after 48 hrs by SRB assay; details: TK-10, 48 h, read-out: Activity
# SF-539 = experiment: Growth inhibition of human SF539 cells assessed as cell growth at 0.1 uM after 48 hrs by SRB assay; details: SF-539, 48 h, read-out: Activity
# UACC-257 = experiment: Growth inhibition of human UACC257 cells assessed as cell growth at 1 mM after 48 hrs by SRB assay; details: UACC-257, 48 h, read-out: Activity
# SNB-75 = experiment: Growth inhibition of human SNB75 cells assessed as cell growth at 100 uM after 48 hrs by SRB assay; details: SNB-75, 48 h, read-out: Activity
# SK-MEL-5 [8] = experiment: Growth inhibition of human SK-MEL-5 cells assessed as cell growth at 0.1 uM after 48 hrs by SRB assay; details: SK-MEL-5, 48 h, read-out: Activity
# PC-3 = experiment: Growth inhibition of human PC3 cells after 48 hrs by […] growth inhibition assay; details: PC-3, 48 h
# OVCAR-5 = experiment: Growth inhibition of human OVCAR5 cells assessed as cell growth at 1 mM after 48 hrs by SRB assay; details: OVCAR-5, 48 h, read-out: Activity
# BT-549 = experiment: Growth inhibition of human BT549 cells assessed as cell growth at 10 uM after 48 hrs by SRB assay; details: BT-549, 48 h, read-out: Activity
# U-251 = experiment: Growth inhibition of human U251 cells assessed as cell growth at 1 uM after 48 hrs by SRB assay; details: U-251, 48 h, read-out: Activity
# SF-295 [9] = experiment: Growth inhibition of human SF295 cells assessed as cell growth at 100 uM after 48 hrs by SRB assay; details: SF-295, 48 h, read-out: Activity
# EKVX [10] = experiment: Growth inhibition of human EKVX cells after 48 hrs by […] growth inhibition assay
# Malme-3M = experiment: Growth inhibition of human MALME-3M cells assessed as cell growth at 100 uM after 48 hrs by SRB assay; details: read-out: Activity
# 786-0 [11] = experiment: Growth inhibition of human 786-0 cells assessed as cell growth at 1 uM after 48 hrs by SRB assay; details: 786-0, 48 h, read-out: Activity
# HT-29 = experiment: Growth inhibition of human HT-29 cells assessed as cell growth at 1 uM after 48 hrs by SRB assay; details: HT-29, 48 h, read-out: Activity
# KM12 = experiment: Growth inhibition of human KM12 cells assessed as cell growth at 0.1 uM after 48 hrs by SRB assay; details: KM12, 48 h, read-out: Activity
# SF-268 = experiment: Growth inhibition of human SF268 cells after 48 hrs by […] growth inhibition assay; details: SF-268, 48 h
# [12] = read-out: LC50 (the source's name)
# [13] = read-out: pLC50 (the source's name) (converted)
smiles,measurement,setting,value
CCOC(=O)C[C@H]1[C@@H](O[Si](C)(C)C(C)(C)C)[C@H](n2cnc3c(NC(=O)Nc4ccccc4)ncnc32)O[C@@H]1CNC(=O)NC,growth at 10 µM,SK-OV-3,90%
same,growth at 1 µM,SF-295 [1],91%
same,growth at 0.1 µM,786-0 [2],92%
same,GI50,NCI-H226; read-out: GI50,> 100 µM
same,CC50,NCI-H226; [12],> 100 µM
same,TGI,NCI-H226; read-out: TGI,> 100 µM
same,GI50,NCI-H226; read-out: pGI50 (converted),> 100 µM
same,CC50,NCI-H226; [13],> 100 µM
same,TGI,NCI-H226; read-out: pTGI (converted),> 100 µM
same,growth at 10 µM,M14,81%
same,growth at 1 µM,UO-31,87%
same,growth at 1 µM,NCI-H460,102%
same,growth at 100 µM,NCI/ADR-RES,80%
same,GI50,HOP-92 [3]; read-out: GI50,< 0.01 µM
same,CC50,HOP-92 [3]; [12],41.2 µM
same,GI50,HOP-92 [3]; read-out: pGI50 (converted),< 0.01 µM
same,CC50,HOP-92 [3]; [13],40.7 µM
same,growth at 100 µM,HOP-62,48%
same,growth at 10 µM,LOX IMVI,93%
same,growth at 0.1 µM,RXF 393,99%
same,growth at 100 µM,SK-MEL-5 [4],28%
same,growth at 1 µM,DU-145,123%
same,growth at 1000 µM,EKVX [5],42%
same,growth at 100 µM,EKVX [6],53%
same,growth at 0.1 µM,SNB-19,92%
same,growth at 1000 µM,NCI-H23,36%
same,growth at 1 µM,HOP-92 [7],-1%
same,growth at 1000 µM,TK-10,-38%
same,growth at 0.1 µM,SF-539,97%
same,growth at 1000 µM,UACC-257,9%
same,growth at 100 µM,SNB-75,32%
same,growth at 0.1 µM,SK-MEL-5 [8],96%
same,GI50,PC-3; read-out: GI50,2.25 µM
same,CC50,PC-3; [12],78.4 µM
same,TGI,PC-3; read-out: TGI,48.5 µM
same,GI50,PC-3; read-out: pGI50 (converted),2.24 µM
same,CC50,PC-3; [13],12.6 µM
same,TGI,PC-3; read-out: pTGI (converted),4.9 µM
same,growth at 1000 µM,OVCAR-5,27%
same,growth at 10 µM,BT-549,110%
same,growth at 1 µM,U-251,95%
same,growth at 100 µM,SF-295 [9],38%
same,GI50,EKVX [10]; read-out: GI50,17.7 µM
same,CC50,EKVX [10]; [12],> 100 µM
same,TGI,EKVX [10]; read-out: TGI,> 100 µM
same,GI50,EKVX [10]; read-out: pGI50 (converted),17.8 µM
same,CC50,EKVX [10]; [13],> 100 µM
same,TGI,EKVX [10]; read-out: pTGI (converted),> 100 µM
same,growth at 100 µM,Malme-3M,50%
same,growth at 1 µM,786-0 [11],83%
same,growth at 1 µM,HT-29,105%
same,growth at 0.1 µM,KM12,107%
same,GI50,SF-268; read-out: GI50,6.53 µM
same,CC50,SF-268; [12],92.5 µM
same,TGI,SF-268; read-out: TGI,27 µM
same,GI50,SF-268; read-out: pGI50 (converted),6.61 µM
same,CC50,SF-268; [13],93.3 µM
same,TGI,SF-268; read-out: pTGI (converted),26.9 µM
